Reference: PubChem BioAssay AID328 (DTP/NCI, 2004)
“And” between values parts separate entries of the source, which are not always exact repeats. Identical values can stand only once. Inconclusive results and toxic doses are left out.

Tested on: BDF1 mice, P388 leukemia ip, median survival T/C
Test: NCI In Vivo Anticancer Drug Screen. Data for tumor model P388 Leukemia (intraperitoneal) in B6D2F1 (BDF1) mice
Details: endpoint: median survival time, higher = longer survival
In short: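 In tumour-bearing mice, survival after compound treatment is set against the vehicle group and given as a quotient.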

[1] = dose: 25.0 mg/kg/injection, schedule: Q01DX009 (ip), vehicle: Klucel (hydroxypropylcellulose) (HPC)
[2] = dose: 50.0 mg/kg/injection, schedule: Q01DX009 (ip), vehicle: Klucel (hydroxypropylcellulose) (HPC)
[3] = dose: 50.0 mg/kg/injection, schedule: Q04DX003 (ip), vehicle: Klucel (hydroxypropylcellulose) (HPC)
[4] = dose: 100.0 mg/kg/injection, schedule: Q01DX009 (ip), vehicle: Klucel (hydroxypropylcellulose) (HPC)
[5] = dose: 100.0 mg/kg/injection, schedule: Q04DX003 (ip), vehicle: Klucel (hydroxypropylcellulose) (HPC)
[6] = dose: 50.0 mg/kg/injection, schedule: Q01DX009 (ip), vehicle: saline
[7] = dose: 100.0 mg/kg/injection, schedule: Q01DX009 (ip), vehicle: saline
[8] = dose: 200.0 mg/kg/injection, schedule: Q04DX003 (ip), vehicle: water
[9] = dose: 100.0 mg/kg/injection, schedule: Q01DX009 (ip), vehicle: saline with Tween-80
[10] = dose: 200.0 mg/kg/injection, schedule: Q01DX009 (ip), vehicle: saline with Tween-80
[11] = dose: 400.0 mg/kg/injection, schedule: Q01DX009 (ip), vehicle: saline with Tween-80
[12] = dose: 100.0 mg/kg/injection, schedule: Q04DX003 (ip), vehicle: saline
[13] = dose: 200.0 mg/kg/injection, schedule: Q01DX009 (ip), vehicle: saline
[14] = dose: 200.0 mg/kg/injection, schedule: Q04DX003 (ip), vehicle: saline
[15] = dose: 400.0 mg/kg/injection, schedule: Q04DX003 (ip), vehicle: saline
[16] = dose: 50.0 mg/kg/injection, schedule: Q01DX009 (ip), vehicle: saline with Tween-80

Structure (SMILES): O=C1CCCC(=O)C1C(C[N+](=O)[O-])c1ccccc1 (centres undefined)
- T/C (dose: 12.5 mg/kg/injection, schedule: Q01DX009 (ip), vehicle: Klucel (hydroxypropylcellulose) (HPC)): 95 % of control and 100 % of control
- T/C [1]: 97 % of control and 119 % of control
- T/C (dose: 25.0 mg/kg/injection, schedule: Q04DX003 (ip), vehicle: Klucel (hydroxypropylcellulose) (HPC)): 100 % of control
- T/C [2]: 88 % of control
- T/C [3]: 104 % of control
- T/C [4]: 96 % of control and 110 % of control
- T/C [5]: 108 % of control

Structure (SMILES): C[N+](C)(CC(=O)Nc1ccc(Cl)c(C(F)(F)F)c1)CC(=O)c1ccc(Cl)c(Cl)c1
- T/C (dose: 200.0 mg/kg/injection, schedule: Q04DX003 (ip), vehicle: saline sonified): 100 % of control
- T/C (dose: 400.0 mg/kg/injection, schedule: Q04DX003 (ip), vehicle: saline sonified): 104 % of control

Structure (SMILES): Nc1ccc(C(=O)Nc2ccc(N(CCCl)CCCl)cc2)cc1
- T/C (dose: 12.5 mg/kg/injection, schedule: Q01DX009 (ip), vehicle: saline): 108 % of control
- T/C (dose: 25.0 mg/kg/injection, schedule: Q04DX003 (ip), vehicle: saline): 152 % of control
- T/C [6]: 173 % of control
- T/C (dose: 50.0 mg/kg/injection, schedule: Q04DX003 (ip), vehicle: saline): 216 % of control
- T/C [7]: 170 % of control
- T/C (dose: 150.0 mg/kg/injection, schedule: Q01DX009 (ip), vehicle: saline): 92 % of control

Structure (SMILES): c1ccc(-c2cc[s+]s2)cc1
- T/C (dose: 3.12 mg/kg/injection, schedule: Q01DX009 (ip), vehicle: water): 110 % of control and 114 % of control
- T/C (dose: 6.25 mg/kg/injection, schedule: Q01DX009 (ip), vehicle: water): 94 % of control and 103 % of control and 120 % of control
- T/C (dose: 12.5 mg/kg/injection, schedule: Q01DX009 (ip), vehicle: water): 100 % of control and 103 % of control and 123 % of control
- T/C (dose: 12.5 mg/kg/injection, schedule: Q04DX003 (ip), vehicle: water): 116 % of control
- T/C (dose: 25.0 mg/kg/injection, schedule: Q01DX009 (ip), vehicle: water): 100 % of control
- T/C (dose: 25.0 mg/kg/injection, schedule: Q04DX003 (ip), vehicle: water): 104 % of control
- T/C (dose: 50.0 mg/kg/injection, schedule: Q01DX009 (ip), vehicle: water): 92 % of control and 116 % of control
- T/C [8]: 101 % of control

Structure (SMILES): CCCCC(CC)C(=O)[O][Sn]([CH2]CCC)([CH2]CCC)[O]C(=O)C(CC)CCCC (centres undefined)
- T/C (dose: 6.25 mg/kg/injection, schedule: Q04DX003 (ip), vehicle: acetone): 91 % of control
- T/C (dose: 12.5 mg/kg/injection, schedule: Q04DX003 (ip), vehicle: acetone): 95 % of control

Structure (SMILES): O=C1C=C(O/C=C/C(C(F)(F)F)C(F)(F)F)C(=O)c2ccccc21
- T/C [9]: 109 % of control

Structure (SMILES): CCOC(=O)c1ccc(N)c(C(O)(C(F)(F)F)C(F)(F)F)c1
- T/C [9]: 90 % of control
- T/C [10]: 100 % of control
- T/C [11]: 104 % of control

Structure (SMILES): C=C(C)COP(=O)(OCC(=C)C)OCC(=C)C
- T/C [2]: 104 % of control
- T/C [4]: 100 % of control
- T/C [5]: 104 % of control
- T/C (dose: 200.0 mg/kg/injection, schedule: Q01DX009 (ip), vehicle: Klucel (hydroxypropylcellulose) (HPC)): 109 % of control
- T/C (dose: 200.0 mg/kg/injection, schedule: Q04DX003 (ip), vehicle: Klucel (hydroxypropylcellulose) (HPC)): 95 % of control
- T/C (dose: 400.0 mg/kg/injection, schedule: Q04DX003 (ip), vehicle: Klucel (hydroxypropylcellulose) (HPC)): 95 % of control

Structure (SMILES): CCOC(=O)C(C)(OCC)OCC
- T/C [6]: 105 % of control
- T/C [7]: 110 % of control
- T/C (dose: 100.0 mg/kg/injection, schedule: Q01DX009 (ip), vehicle: water): 98 % of control
- T/C [12]: 100 % of control
- T/C (dose: 100.0 mg/kg/injection, schedule: Q04DX003 (ip), vehicle: water): 104 % of control
- T/C [13]: 115 % of control
- T/C (dose: 200.0 mg/kg/injection, schedule: Q01DX009 (ip), vehicle: water): 101 % of control
- T/C [14]: 91 % of control
- T/C [8]: 95 % of control
- T/C [15]: 91 % of control
- T/C (dose: 400.0 mg/kg/injection, schedule: Q04DX003 (ip), vehicle: water): 100 % of control

Structure (SMILES): O=S(=O)(Sc1ccc(N(CCCl)CCCl)cc1)c1ccc(N(CCCl)CCCl)cc1
- T/C [9]: 122 % of control
- T/C (dose: 132.0 mg/kg/injection, schedule: Q01DX009 (ip), vehicle: saline with Tween-80): 110 % of control

Structure (SMILES): Cc1ccc2nc(C)n(C)c(=O)c2c1
- T/C [16]: 98 % of control
- T/C [9]: 91 % of control
- T/C [10]: 92 % of control

Structure (SMILES): CNNC(=O)NC
- T/C (dose: 2.06 mg/kg/injection, schedule: Q01DX009 (ip), vehicle: saline): 108 % of control
- T/C (dose: 4.12 mg/kg/injection, schedule: Q01DX009 (ip), vehicle: saline): 116 % of control
- T/C (dose: 8.25 mg/kg/injection, schedule: Q01DX009 (ip), vehicle: saline): 91 % of control
- T/C (dose: 35.0 mg/kg/injection, schedule: Q04DX003 (ip), vehicle: saline): 109 % of control
- T/C (dose: 55.0 mg/kg/injection, schedule: Q04DX003 (ip), vehicle: saline): 113 % of control
- T/C (dose: 80.0 mg/kg/injection, schedule: Q04DX003 (ip), vehicle: saline): 118 % of control
- T/C (dose: 120.0 mg/kg/injection, schedule: Q04DX003 (ip), vehicle: saline): 109 % of control
- T/C (dose: 180.0 mg/kg/injection, schedule: Q04DX003 (ip), vehicle: saline): 113 % of control
- T/C (dose: 270.0 mg/kg/injection, schedule: Q04DX003 (ip), vehicle: saline): 109 % of control

Structure (SMILES): Nn1c(-c2ccc([N+](=O)[O-])cc2)nc2ccccc2c1=O
- T/C [16]: 90 % of control
- T/C [9]: 91 % of control
- T/C [10]: 91 % of control

Structure (SMILES): NC(Cc1ccc([N+](=O)[O-])cc1)C(=O)O (centres undefined)
- T/C [9]: 105 % of control
- T/C [7]: 100 % of control
- T/C (dose: 100.0 mg/kg/injection, schedule: Q04DX003 (ip), vehicle: other): 100 % of control
- T/C [10]: 110 % of control
- T/C [13]: 100 % of control
- T/C (dose: 200.0 mg/kg/injection, schedule: Q04DX003 (ip), vehicle: other): 104 % of control
- T/C [11]: 90 % of control
- T/C (dose: 400.0 mg/kg/injection, schedule: Q01DX009 (ip), vehicle: saline): 86 % of control
- T/C (dose: 400.0 mg/kg/injection, schedule: Q04DX003 (ip), vehicle: other): 100 % of control

Structure (SMILES): C1OC1CO[C@@H]1CO[C@H]2[C@@H]1OC[C@H]2OCC1CO1 (some centres undefined)
- T/C (dose: 264.0 mg/kg/injection, schedule: Q04DX003 (ip), vehicle: saline with Tween-80): 183 % of control
- T/C (dose: 400.0 mg/kg/injection, schedule: Q04DX003 (ip), vehicle: saline with Tween-80): 195 % of control

Structure (SMILES): CNc1c(F)c(C#N)c(F)c(F)c1C#N
- T/C [16]: 119 % of control

Structure (SMILES): Cc1c(Cl)cccc1NC(=O)Oc1ccc(Cl)cc1Cl
- T/C (dose: 50.0 mg/kg/injection, schedule: Q04DX003 (ip), vehicle: saline with Tween-80): 109 % of control
- T/C (dose: 100.0 mg/kg/injection, schedule: Q04DX003 (ip), vehicle: saline with Tween-80): 122 % of control
- T/C (dose: 200.0 mg/kg/injection, schedule: Q04DX003 (ip), vehicle: saline with Tween-80): 113 % of control

Structure (SMILES): CS(=O)(=O)Nc1ccc(Nc2c3ccccc3nc3ccccc23)cc1
- T/C (dose: 15.0 mg/kg/injection, schedule: Q04DX003 (ip), vehicle: Klucel (hydroxypropylcellulose) (HPC)): 109 % of control
- T/C [1]: 95 % of control
- T/C [2]: 120 % of control
- T/C [3]: 122 % of control
- T/C [12]: 200 % of control and 209 % of control
- T/C (dose: 150.0 mg/kg/injection, schedule: Q04DX003 (ip), vehicle: Klucel (hydroxypropylcellulose) (HPC)): 159 % of control
- T/C (dose: 175.0 mg/kg/injection, schedule: Q04DX003 (ip), vehicle: saline): 237 % of control
- T/C [14]: 204 % of control and 223 % of control
- T/C (dose: 265.0 mg/kg/injection, schedule: Q04DX003 (ip), vehicle: saline): 250 % of control
- T/C [15]: 272 % of control and 95 % of control and 100 % of control

Structure (SMILES): CCCCCCOc1cccc(OCCCC[N+]2(CC)CCCCC2)c1
- T/C (dose: 6.25 mg/kg/injection, schedule: Q01DX009 (ip), vehicle: saline): 108 % of control
